Here are results for 8 compounds from article PMC10303271, “Synthesis and Receptor Binding Studies of α5 GABAAR Selective Novel Imidazodiazepines Targeted for Psychiatric and Cognitive Disorders” (Molecules, 2023).

The test system of test [1] is Ca channel human. Briefly: PDSP primary binding Ca channel. The following applies: primary binding, 10,000 nM; last figure of the line = mean of the 4 before it. The procedure:
(§1) To determine if any off-target receptor-binding effects are present, all the novel ligands were sent to the National Institute of Mental Health (NIMH), Psychoactive Drug Screening Program (PDSP). The ligands were screened over a panel of 47 receptors, ion channels, and transporters to determine any other possible interactions with […]. The hERG-binding was also determined. […] No binding of the test compounds to calcium channels was observed. […] It is necessary to screen the compounds for hERG-binding during the early process of drug discovery. The unintentional binding of many drugs to hERG can cause blockade of hERG K+ channels in the heart, which can cause many side effects including cardiac arrhythmias and sudden death. […] All of the α5 imidazodiazepines were tested for hERG-binding.
(§2) The NIMH PDSP assay protocol book [https://kidbdev.med.unc.edu/databases/PDSP%20Protocols%20II%202013-03-28.pdf accessed on 23 April 2023]. describes the protocols for primary and secondary radio-ligand binding assays. These assays were carried out in a final volume of 125 µL per well in the appropriate binding buffer.
(§3) The binding of a ligand to a receptor, ion channel, or transporter was determined in the […] of 10 µM of the appropriate reference compound. […] Plates were incubated in the dark for 90 min at rt, and the reactions were stopped by vacuum filtration onto 0.3% polyethyleneimine (PEI) soaked 96-well filter mats using a 96-well Filtermateharvester. This was followed by three washes with cold PBS buffer. Radioactivity was then counted on a Microbeta counter. Nonlinear regression was used to analyze the data with N = 6 replicates.

The target of test [2] is T1, 5-HT1A (Homo sapiens, UniProt P08908).
T1 construct: purchased NIMH Psychoactive Drug Screening Program (PDSP)
T1 sequence (P08908 1-422): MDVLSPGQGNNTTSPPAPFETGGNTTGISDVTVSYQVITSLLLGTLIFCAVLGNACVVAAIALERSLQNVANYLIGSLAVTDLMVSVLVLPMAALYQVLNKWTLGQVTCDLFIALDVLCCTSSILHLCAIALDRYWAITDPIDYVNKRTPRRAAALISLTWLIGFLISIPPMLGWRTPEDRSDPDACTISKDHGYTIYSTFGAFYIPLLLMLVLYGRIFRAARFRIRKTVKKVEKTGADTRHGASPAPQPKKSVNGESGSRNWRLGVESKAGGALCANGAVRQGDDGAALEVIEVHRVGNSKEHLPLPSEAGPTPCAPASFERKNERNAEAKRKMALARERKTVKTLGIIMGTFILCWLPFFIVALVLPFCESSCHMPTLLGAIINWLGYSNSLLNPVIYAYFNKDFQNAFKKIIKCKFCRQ
Briefly: PDSP primary binding 5-HT1A. The note with it: 1.5 h; primary binding, 10,000 nM; last figure of the line = mean of the 4 before it; read-out: 5-HT1A, PDSP raw data, mean. The procedure: as §1, §2, §3

The target in test [3] is T2, 5-HT1B (Homo sapiens, UniProt P28222).
T2 construct: purchased NIMH Psychoactive Drug Screening Program (PDSP)
T2 sequence (P28222 whole entry): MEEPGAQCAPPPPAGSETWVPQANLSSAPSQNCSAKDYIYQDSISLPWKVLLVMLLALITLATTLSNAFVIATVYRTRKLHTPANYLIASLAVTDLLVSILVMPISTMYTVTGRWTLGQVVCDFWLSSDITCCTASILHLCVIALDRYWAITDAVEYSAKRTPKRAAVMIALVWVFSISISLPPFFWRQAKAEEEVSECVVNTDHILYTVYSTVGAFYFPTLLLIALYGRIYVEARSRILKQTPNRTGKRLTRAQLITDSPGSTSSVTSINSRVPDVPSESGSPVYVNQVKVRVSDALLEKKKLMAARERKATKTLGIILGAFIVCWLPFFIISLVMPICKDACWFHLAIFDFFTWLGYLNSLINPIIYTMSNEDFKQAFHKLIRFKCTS
The test is described as follows: PDSP primary binding 5-HT1B. The following applies: 1.5 h; primary binding, 10,000 nM; last figure of the line = mean of the 4 before it; read-out: 5-HT1B, PDSP raw data, mean. The procedure:
as §1, §2, §3

Test [4] deals with T3, 5-HT4 (Homo sapiens, UniProt Q13639).
T3 construct: purchased NIMH Psychoactive Drug Screening Program (PDSP)
T3 sequence (Q13639 whole entry): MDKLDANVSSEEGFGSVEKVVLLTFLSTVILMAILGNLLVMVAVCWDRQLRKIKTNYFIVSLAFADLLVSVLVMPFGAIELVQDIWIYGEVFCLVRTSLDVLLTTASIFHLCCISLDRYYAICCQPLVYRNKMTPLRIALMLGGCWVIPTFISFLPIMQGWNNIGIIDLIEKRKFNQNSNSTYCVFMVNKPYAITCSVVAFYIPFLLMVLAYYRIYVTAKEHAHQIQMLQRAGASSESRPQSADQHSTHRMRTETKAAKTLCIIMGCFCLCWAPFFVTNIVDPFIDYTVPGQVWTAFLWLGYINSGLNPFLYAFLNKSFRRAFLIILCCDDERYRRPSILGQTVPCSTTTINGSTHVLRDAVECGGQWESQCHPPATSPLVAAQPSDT
The test is described as follows: PDSP primary binding 5-HT4. The following applies: 1.5 h; primary binding, 10,000 nM; last figure of the line = mean of the 4 before it; read-out: 5-HT4, PDSP raw data, mean. Here is the method:
as §1, §2, §3

Test [5] has as its target T4, D4 (Homo sapiens, UniProt P21917).
T4 construct: purchased NIMH Psychoactive Drug Screening Program (PDSP)
T4 sequence (P21917 1-419): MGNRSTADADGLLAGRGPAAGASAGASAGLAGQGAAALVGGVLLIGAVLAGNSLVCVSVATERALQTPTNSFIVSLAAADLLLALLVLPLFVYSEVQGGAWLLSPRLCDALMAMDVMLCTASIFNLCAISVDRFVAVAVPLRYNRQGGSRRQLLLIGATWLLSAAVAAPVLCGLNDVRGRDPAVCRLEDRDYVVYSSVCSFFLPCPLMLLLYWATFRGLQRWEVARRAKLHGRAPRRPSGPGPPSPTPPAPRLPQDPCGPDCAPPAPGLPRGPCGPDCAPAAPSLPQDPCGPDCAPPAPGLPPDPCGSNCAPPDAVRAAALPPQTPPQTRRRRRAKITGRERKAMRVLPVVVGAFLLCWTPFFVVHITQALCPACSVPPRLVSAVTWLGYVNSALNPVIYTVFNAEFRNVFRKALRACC
Briefly: PDSP primary binding D4. The following applies: 1.5 h; primary binding, 10,000 nM; last figure of the line = mean of the 4 before it; read-out: D4, PDSP raw data, mean. The procedure: as §1, §2, §3

Test [6] concerns the target T5, NET (Homo sapiens, UniProt P23975).
T5 construct: purchased NIMH Psychoactive Drug Screening Program (PDSP)
The test is described as follows: PDSP primary binding NET. The following applies: primary binding, 10,000 nM; last figure of the line = mean of the 4 before it; read-out: NET, PDSP raw data, mean. Here is the method: as §1, §2, §3

For test [7], the system named is NR2B. The test is described as follows: PDSP primary binding NR2B. The note with it: primary binding, 10,000 nM; last figure of the line = mean of the 4 before it. The procedure: as §1, §2, §3
Test [8] has as its target T6, M4 D (Homo sapiens, UniProt P08173, A203G/Y113C).
T6 construct: purchased NIMH Psychoactive Drug Screening Program (PDSP)
T6 sequence (P08173 1-479 Y113C/A203G): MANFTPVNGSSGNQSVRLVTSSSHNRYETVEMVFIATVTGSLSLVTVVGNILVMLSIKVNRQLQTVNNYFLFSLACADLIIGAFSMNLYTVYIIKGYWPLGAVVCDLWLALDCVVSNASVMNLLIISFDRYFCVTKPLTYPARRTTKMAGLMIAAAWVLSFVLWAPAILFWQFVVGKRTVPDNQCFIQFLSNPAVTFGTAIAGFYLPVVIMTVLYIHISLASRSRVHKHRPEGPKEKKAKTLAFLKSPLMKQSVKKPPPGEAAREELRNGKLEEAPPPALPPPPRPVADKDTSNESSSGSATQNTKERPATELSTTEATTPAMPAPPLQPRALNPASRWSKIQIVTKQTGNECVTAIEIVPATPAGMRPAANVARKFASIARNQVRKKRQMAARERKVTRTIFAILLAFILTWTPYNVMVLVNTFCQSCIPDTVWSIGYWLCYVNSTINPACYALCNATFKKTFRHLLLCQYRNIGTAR
The test is described as follows: PDSP primary binding M4 D. The note with it: primary binding, 10,000 nM; last figure of the line = mean of the 4 before it; read-out: M4 D, PDSP raw data, mean. The procedure:
as §1, §2, §3

Test [9] deals with T7, Alpha3Beta4 (Rattus norvegicus, UniProt P04757+P12392).
T7 construct: purchased NIMH Psychoactive Drug Screening Program (PDSP)
T7 sequence (P04757 26-499): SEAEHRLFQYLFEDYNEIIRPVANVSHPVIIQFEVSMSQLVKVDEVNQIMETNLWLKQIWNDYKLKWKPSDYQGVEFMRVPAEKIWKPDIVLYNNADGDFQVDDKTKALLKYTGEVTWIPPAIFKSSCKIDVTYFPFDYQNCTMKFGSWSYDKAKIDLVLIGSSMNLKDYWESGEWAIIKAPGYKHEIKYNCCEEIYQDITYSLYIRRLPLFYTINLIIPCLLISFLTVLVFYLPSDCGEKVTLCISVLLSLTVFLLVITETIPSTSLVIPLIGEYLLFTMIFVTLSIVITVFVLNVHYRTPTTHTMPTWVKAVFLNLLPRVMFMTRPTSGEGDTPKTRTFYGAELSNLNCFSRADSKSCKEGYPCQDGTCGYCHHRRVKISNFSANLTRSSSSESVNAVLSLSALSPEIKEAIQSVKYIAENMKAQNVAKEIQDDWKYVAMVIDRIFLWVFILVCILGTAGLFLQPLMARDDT
T7 sequence (P12392 21-495): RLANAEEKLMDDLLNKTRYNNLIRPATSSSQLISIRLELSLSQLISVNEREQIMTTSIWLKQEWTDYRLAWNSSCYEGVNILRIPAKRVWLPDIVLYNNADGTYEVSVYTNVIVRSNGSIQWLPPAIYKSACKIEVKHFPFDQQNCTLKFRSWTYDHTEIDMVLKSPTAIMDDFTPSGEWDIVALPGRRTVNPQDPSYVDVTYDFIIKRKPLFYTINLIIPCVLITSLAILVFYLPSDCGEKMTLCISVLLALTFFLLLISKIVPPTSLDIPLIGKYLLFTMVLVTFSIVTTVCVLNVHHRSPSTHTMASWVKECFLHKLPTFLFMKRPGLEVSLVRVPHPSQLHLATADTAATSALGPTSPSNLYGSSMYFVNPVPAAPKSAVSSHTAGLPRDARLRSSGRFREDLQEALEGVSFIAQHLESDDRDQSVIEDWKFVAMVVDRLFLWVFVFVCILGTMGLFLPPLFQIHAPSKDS
The test is described as follows: PDSP primary binding Alpha3Beta4. The following applies: primary binding, 10,000 nM; last figure of the line = mean of the 4 before it; read-out: Alpha3Beta4, PDSP raw data, mean. The procedure: as §1, §2, §3

T5 sequence (P23975 whole entry): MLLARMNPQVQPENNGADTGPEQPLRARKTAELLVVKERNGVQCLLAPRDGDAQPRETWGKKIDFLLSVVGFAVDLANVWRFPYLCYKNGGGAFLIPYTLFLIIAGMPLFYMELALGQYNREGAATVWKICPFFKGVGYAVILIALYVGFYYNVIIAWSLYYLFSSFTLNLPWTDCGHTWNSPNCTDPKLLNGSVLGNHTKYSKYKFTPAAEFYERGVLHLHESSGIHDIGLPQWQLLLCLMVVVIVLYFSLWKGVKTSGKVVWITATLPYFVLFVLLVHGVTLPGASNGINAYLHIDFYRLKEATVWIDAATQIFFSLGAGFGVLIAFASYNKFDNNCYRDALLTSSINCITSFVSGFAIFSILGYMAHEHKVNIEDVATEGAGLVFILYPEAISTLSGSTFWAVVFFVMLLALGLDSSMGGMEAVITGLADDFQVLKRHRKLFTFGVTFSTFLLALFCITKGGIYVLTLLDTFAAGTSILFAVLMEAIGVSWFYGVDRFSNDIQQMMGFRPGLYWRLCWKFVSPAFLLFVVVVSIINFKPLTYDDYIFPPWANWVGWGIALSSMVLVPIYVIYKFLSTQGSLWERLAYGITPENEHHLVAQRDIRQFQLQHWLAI

For the compound `CCc1noc(-c2ncn3c2[C@@H](C)N=C(c2ccccc2F)c2cc(Cl)ccc2-3)n1` [Compound 36, (R)-5-(8-Chloro-6-(2′-fluorophenyl)-4-methyl-4H-benzo[f]imidazo[1,5-a][1,4]diazepin-3-yl)-3-ethyl-1,2,4-oxadiazole], in test [1], the “Ca channel human, PDSP raw data, mean” value stood at 16.74%. Besides, the inhibition at 10 µM was 3% in [2]; 3.67% in test [3]; -12.3% in test [4]; -4.5% in test [5]; -2.36% in test [6]; 26.6% in test [8]. Moreover, the inhibition at 10 µM in test [9] is 15.6%. The “NR2B, PDSP raw data, mean” value in [7] is listed as 14.42%.
As to `C[C@H]1N=C(c2ccccc2F)c2cc(-c3ccccc3)ccc2-n2cnc(C(=O)N(C)C)c21` [Compound 5, (R)-6-(2′-Fluorophenyl)-N,N,4-trimethyl-8-phenyl-4H-benzo[f]imidazo[1,5-a][1,4]diazepine-3-carboxamide], the “Ca channel human, PDSP raw data, mean” value in test [1] came to 39.05%. The inhibition at 10 µM in [2] is 2.37%; in test [3] it was 11.8%; in test [4], -14.4%; in test [5], -4.45%; in [6], -6%; in [8], 27.2%. Further, the inhibition at 10 µM in test [9] is -0.77%. Moreover, the “NR2B, PDSP raw data, mean” value in [7] is given as 3.79%.
Take `C[C@H]1N=C(c2ccccc2F)c2cc(Cl)ccc2-n2cnc(-c3nc(C4CC4)no3)c21` [Compound 38, (R)-5-(8-Chloro-6-(2′-fluorophenyl)-4-methyl-4H-benzo[f]imidazo[1,5-a][1,4]diazepin-3-yl)-3-cyclopropyl-1,2,4-oxadiazole]: in [1], the “Ca channel human, PDSP raw data, mean” value is given as 30.64%. In addition, the inhibition at 10 µM in test [2] is -1.57%; in [3], 8.75%; in [4] it was 38.7%; in [5], -3.44%; in test [6] it was -0.22%; in [8], -18.7%. In addition, in test [9], the inhibition at 10 µM was determined as 12.4%. Further, the “NR2B, PDSP raw data, mean” value in test [7] is recorded as 31.49%.
As for `C#Cc1ccc2c(c1)C(c1ccccc1F)=N[C@H](C)c1c(C(=S)N(C)C)ncn1-2` [Compound 33, (R)-8-Ethynyl-6-(2′-fluorophenyl)-N,N,4-trimethyl-4H-benzo[f]imidazo[1,5-a][1,4]diazepine-3-carbothioamide], the “Ca channel human, PDSP raw data, mean” value in test [1] is listed as 39.05%. In addition, the inhibition at 10 µM is 2.37% in test [2]; 11.8% in [3]; -14.4% in test [4]; -4.45% in [5]; -6% in test [6]; 27.2% in [8]. For the same compound, the inhibition at 10 µM in [9] was -0.77%. In test [7], the “NR2B, PDSP raw data, mean” value is recorded as 3.79%.
Consider `C#Cc1ccc2c(c1)C(c1ccccc1Cl)=N[C@H](C)c1c(C(=O)NC)ncn1-2` [Compound 21, (R)-6-(2′-Chlorophenyl)-8-ethynyl-N,4-dimethyl-4H-benzo[f]imidazo[1,5-a][1,4]diazepine-3-carboxamide], for which, in test [1], the “Ca channel human, PDSP raw data, mean” value is recorded as 9.85%. For the same compound, the inhibition at 10 µM is 4.88% in test [2]; -0.39% in test [3]; 4% in test [4]; 2.12% in test [5]; -2.45% in [6]; 1.13% in test [8]. Moreover, the inhibition at 10 µM in [9] was determined as 11.3%. Also, the “NR2B, PDSP raw data, mean” value in test [7] is reported as -8.82%.
Regarding `CCc1noc(-c2ncn3c2[C@@H](C)N=C(c2ccccc2F)c2cc(C4CC4)ccc2-3)n1` [Compound 46, (R)-5-(8-Cyclopropyl-6-(2′-fluorophenyl)-4-methyl-4H-benzo[f]imidazo[1,5-a][1,4]diazepin-3-yl)-3-ethyl-1,2,4-oxadiazole], in [1], the “Ca channel human, PDSP raw data, mean” value is 36.53%. For the same compound, the inhibition at 10 µM in test [2] is 17.8%; in test [3], 15.1%; in test [4], 3.05%; in test [5], 10.6%; in test [6], 24.3%; in [8], 33.1%. Besides, the inhibition at 10 µM in test [9] was found to be 10.4%. The “NR2B, PDSP raw data, mean” value in test [7] stood at 32.88%.
For the compound `CCc1noc(-c2ncn3c2CN=C(c2ccccc2F)c2cc(C4CC4)ccc2-3)n1` [Compound 44, 5-(8-Cyclopropyl-6-(2′-fluorophenyl)-4H-benzo[f]imidazo[1,5-a][1,4]diazepin-3-yl)-3-ethyl-1,2,4-oxadiazole], the “Ca channel human, PDSP raw data, mean” value in test [1] is 36.68%. Further, the inhibition at 10 µM in test [2] is 36.1%; in test [3], 62.1%; in test [4], -9.26%; in test [5] it was -4.07%; in [6] it was 4.9%; in test [8], 35.9%. The inhibition at 10 µM in test [9] amounted to 7.56%. Besides, the “NR2B, PDSP raw data, mean” value in [7] came out at 21.74%.
`C#Cc1ccc2c(c1)C(c1ccccc1Cl)=N[C@H](C)c1c(C(=O)N(C)CC)ncn1-2` [Compound 29]: the “Ca channel human, PDSP raw data, mean” value in test [1] is 22.67%. Besides, the inhibition at 10 µM in [2] was -2.7%; in test [3], -3.99%; in test [4] it was -6.11%; in test [5], 1.36%; in [6], -2.63%; in test [8], 46.2%. In addition, the inhibition at 10 µM in [9] came out at 0.02%. The “NR2B, PDSP raw data, mean” value in [7] is recorded as -14.08%.
